In patent US20110251128A1, “THYMOSIN Beta4 PEPTIDES PROMOTE TISSUE REGENERATION” (The Board of Regents of the University of Texas System, priority 2010, published 2011):
“Also recorded” adds a separate entry of the source. Where two headings read alike, the source gives them in different places. Residues, ends and D or L forms follow the SMILES beside them. No end group written: not given here.

Experiments:
[1] = tested on: embryonic cardiac endothelial cells; test: In vitro embryonic cardiac cell migration assay on collagen gel (outflow tract explants); assay type: cell-based, mouse; design: unit not given here; conditions: 300 ng peptide or 100 ng TB4 in medium; E11.5 outflow tract explants; results normalized to PBS control (TB4 = 100.00)
Method: (§1) In vitro embryonic cardiac cell migration assay. The outflow tract of the heart was dissected from E11.5 wild-type mouse embryos and placed on rat-tail collagen matrix (Roche) endothelial layer facing down as described (Bock-Marquette et al., 2004; Runyan and Markwald, 1983). After 10 h of attachment, three independent explants were incubated with 300 ng of peptide #1-17, 100 ng of TB4, or 3 μl PBS in […] OPTIMEM medium (Invitrogen/Gibco) respectively. Medium and protein were changed every two days. To monitor migration distance photos were taken daily using Nikon DXM1200F microscope at 4× magnification. Cell migration distance was quantified by ImageJ software (http at rsb.info.nih.gov/ij/) in three separate explants and three measurements for each treatment respectively. Beating frequency of myocardial cells was counted three times at 7-15 days of treatment. Calculations were normalized to PBS and TB4 treated positive and negative controls. After 15 days at 37° C. in 5% CO2, explants were fixed in 4% paraformaldehyde in PBS for 10 min at room temperature. Explants were stored at 4° C. in PBS for further immunocytochemical investigations.

[2] = tested on: myocardial cells; test: Beating frequency of myocardial cells in embryonic cardiac explants on collagen gel; assay type: cell-based, mouse; conditions: for frequency of myocardial beating: 300 ng peptide or 100 ng TB4, normalized to PBS and TB4 controls (TB4 = 100.00); for myocyte beating, effect in words: compared with full-length TB4 or other constructs
Method: as §1

[3] = tested on: mature coronary vessels; test: Immunohistochemistry, smooth muscle α-actin positive vessels at infarction border zone; assay type: in vivo, mouse; conditions: two weeks after treatment, compared to PBS (FIG. 10)
Description: (§2) Animals and Surgical procedures. Mice: Myocardial infarctions were produced in seventy C57BL/6J male mice at 16 weeks of age (25-30 g) by ligation of the left anterior descending (LAD) coronary artery as described (Garner et al., 2003). All animal protocols were reviewed and approved by the University of Texas Southwestern Medical School Institutional Animal Care Advisory Committee and were in compliance with the rules governing animal use as published by the NIH. Mice were sedated in an isoflurane chamber (5%) for 60 seconds until self-designed coaxial mask could be safely applied. The mask supplied continuous isoflurane (2.0%) and oxygen (98.0%) under positive pressure from a Harvard small animal respirator throughout the procedures. Immediately after ligation mice were injected with 200 ng of peptide in […] or […] PBS in collagen intracardially in the infarction border, and with […] PBS intraperitoneally as described (Bock-Marquette et al., 2004). Intraperitoneal injections were repeated every three days after ligation. Effective doses of the peptides were calculated based on optimal in vitro cell migration effect and on biodistribution calculations of full length TB4 (Mora et al., 1997). The inventors administered buprenorphine (0.05 mg/kg) for post-operative pain control. Hearts were removed 1, 14 and 21 days after ligation and processed for further investigations.
Immunohistochemistry. Adult mouse cardiac tissue was fixed in 4% paraformaldehyde and sections were analyzed by immunohistochemistry. Hearts were sectioned at eight levels from the base to the apex. Serial sections were immunostained with primary antibodies against Pecam-1 and Wt-1 (1:50) (Santa Cruz), Smooth muscle a-actin (1:220) (Sigma), Sarcomeric a-actinin (1:200) (Sigma), Connexin43 (1:200) (Invitrogen), pS368-Connexin43 (1:200) (Cell Signaling Technology) as recommended by the manufacturer. Terminal deoxynucleotidyl transferase dUTP nick end labeling (TUNEL) assay was performed using In Situ Cell Detection kit (Roche). Number of sm a-actin positive capillaries and Wt-1 positive cells were counted at the infarction border zone in high power photographs at all levels of the sections in three peptide, TB4 and PBS treated hearts respectively.

[4] = tested on: Wt-1 positive cardiac progenitors; test: Immunohistochemistry, Wt-1 positive progenitor cells at infarction border; assay type: in vivo, mouse; conditions: infarction border, two weeks after injections (FIG. 11)
Description: Animals and Surgical procedures. Mice: Myocardial infarctions were produced in seventy C57BL/6J male mice at 16 weeks of age (25-30 g) by ligation of the left anterior descending (LAD) coronary artery as described (Garner et al., 2003). All animal protocols were reviewed and approved by the University of Texas Southwestern Medical School Institutional Animal Care Advisory Committee and were in compliance with the rules governing animal use as published by the NIH. Mice were sedated in an isoflurane chamber (5%) for 60 seconds until self-designed coaxial mask could be safely applied. The mask supplied continuous isoflurane (2.0%) and oxygen (98.0%) under positive pressure from a Harvard small animal respirator throughout the procedures. […] Effective doses of the peptides were calculated based on optimal in vitro cell migration effect and on biodistribution calculations of full length TB4 (Mora et al., 1997). […]
Immunohistochemistry. Adult mouse cardiac tissue was fixed in 4% paraformaldehyde and sections were analyzed by immunohistochemistry. […] Number of sm a-actin positive capillaries and Wt-1 positive cells were counted at the infarction border zone in high power photographs at all levels of the sections in three peptide, TB4 and PBS treated hearts respectively.

[5] = tested on: C57BL/6J male mice after coronary ligation; test: Myocardial infarction by LAD coronary ligation in adult mice: echocardiography, scar volume, myocyte size; assay type: in vivo, mouse; conditions: for post-ischemic cardiac function, in words: adult mice after coronary ligation; for side effects: mouse model
Description: as §2
Analysis of cardiac function by echocardiography: Echocardiograms to assess systolic function were performed using M-mode and 2-dimensional measurements as described previously (Garner et al., 2003). The measurements represented the average of six selected cardiac cycles from at least two separate scans performed in random-blind fashion with papillary muscles used as a point of reference for consistency in level of scan. End diastole was defined as the maximal left ventricle (LV) diastolic dimension and end systole was defined as the peak of posterior wall motion. Single outliers in each group were omitted for statistical analysis. Fractional shortening (FS), a surrogate of systolic function, was calculated from LV dimensions as follows: FS=[(EDD−ESD)/EDD]×100%. Ejection fraction (EF) was calculated as follows: EF=[(edd^3−esd^3)/edd^3]×100%. EDD, end diastolic dimension; ESD, end systolic dimension.
Calculation of scar volume and myocyte size: Scar volume was calculated after Masson's trichrome staining in six sections through the heart of each mouse using Openlab 3.03 software (Improvision) similar to previously described (Bock-Marquette et al., 2004). Percent area of collagen deposition was measured on each section in blinded fashion and averaged for each mouse.

[6] = Yang et al., 2004, cited from earlier work
[7] = tested on: adult infarcted pigs; test: Ischemia reperfusion (acute myocardial infarction) in pigs with retroinfusion of peptides; assay type: in vivo, pig; conditions: pig model
Method: Pigs: German pigs were purchased from the animal research department of the Ludwig-Maximilians-University (Oberschleissheim, Germany). Animal care and all experimental procedures were performed in accordance to the German and NIH animal legislation guidelines and were approved by the Bavarian Animal Care and Use Committee (AZ 55.2-1-54-2531-26/09). All animal experiments were conducted at the Walter Brendel Centre of Experimental Medicine, University of Munich.
Ischemia reperfusion experiments: Pigs (n=5/experimental group) were anesthetized and instrumented as described previously (Hinkel et al., 2008). Briefly, a balloon was placed in the left anterior descending artery (LAD) distal to the bifurcation of the first diagonal branch and inflated for 60 min. Correct localization of the coronary occlusion and patency of the first diagonal branch were ensured by injection fluoroscopy. Regional application of TB4 peptides or saline solution was performed via selective pressure regulated retroinfusion for 10 min into the anterior interventricular vein (AIV) draining the LAD-perfused myocardium (Kupatt et al., 2005).
Global myocardial function: At day 0 before ischemia induction and after 24 h of reperfusion myocardial function was obtained via Millar pressure tip catheter. Therefore the Millar pressure tip catheter was placed in the left ventricle and left ventricular pressure was recorded for off-line analysis.
Regional myocardial function: 24 hours after induction of ischemia, sternotomy was performed and ultrasonic crystals were placed subendocardial into the area at risk, the infracted area as well as into the Cx perfusion area in a standardized manner. Subendocardial segment shortening (SES) was assessed under resting heart rate as well as at 120 and 150 beats/min atrial pacing (for 1 min/each).
Infarct size and local inflammation: For assessment of infarct size methylene blue was injected in the left ventricle for negative staining of the AAR and tetrazolium red was applied into the LAD for viability staining in the infracted area. Thereafter, left ventricle was cut into slices (5 mm thick), and subjected to digital photography. Planimetry of different slices was conducted via ImageJ for assessment of infarct size in % of AAR. Tissue samples from infarct, area at risk and non-ischemic control were harvested for leukocyte recruitment. Myeloperoxidase assays were performed as previously described (Kupatt et al., 2005).

Row | Compound | endothelial cell migration distance [1] | frequency of myocardial beating [2] | myocyte beating, effect in words [2] | other results
1 | #4: de-acetylated form of the N-terminal variable domain (of #1) (SDKP; Thymosin beta-4; UniProt P62328 2-5, looked up, fragment) | 154 | 86.88+/−1.15 beats/75 sec |  | 
2 | Ac-SDKPDMox [#3] | 70.7 | 17.21+/−1.00 beats/75 sec |  | number of mature coronary vessels [3]: fails to alter the number of mature coronary vessels; number of mature coronary vessels ([3]; listed as Ac-SDKPDMox): did not initiate vessel growth; Wt-1 positive progenitor cells [4]: fails to increase Wt-1 positive progenitor cells; post-ischemic cardiac function, in words [5]: does not alter cardiac function; post-ischemic cardiac function, in words ([5]; listed as Ac-SDKPDMox): failed to aid cardiac function
3 | LKKTET [#8] | 13 | 87.02+/−16.17 beats/75 sec | resembled myocyte fibrillation; also recorded: increases beating frequency | 
4 | Ac-SDKP (Ac-SDKP-OH; UniProt P62328 2-5, looked up, fragment) [#1, acetylated N-terminal variable domain of TB4] | 116 | 45.08+/−2.31 beats/75 sec | inhibit myocyte beating in vitro | fibrosis, inflammation and coronary vessel growth / angiogenesis [6]: highly angiogenic; post-ischemic cardiac (global) function [6]: did not affect post-ischemic cardiac function; also recorded: did not aid global function; fibrosis, inflammation and coronary vessel growth / angiogenesis ([6]; listed as Ac-SDKP): positive influence; post-ischemic cardiac (global) function ([6]; listed as Ac-SDKP): does not aid post-ischemic cardiac function
5 | LKKTETQEKNPLPSKETIEQEKQAGES [#14] |  |  |  | side effects [7]: did not observe any major side effects; side effects [5]: did not observe any major side effects
6 | #5: de-acetylated form of the N-terminal variable domain with Met6 (of #2) (SDKPDM; Thymosin beta-4; UniProt P62328 2-7, looked up, fragment) | 139 | 66.39+/−3.46 beats/75 sec |  | 
7 | C[C@H](N)C(=O)NCC(=O)N[C@@H](CCC(=O)O)C(=O)N[C@@H](CO)C(=O)O [#17, AGES] (H-AGES-OH) |  |  |  | side effects [7]: did not observe any major side effects; side effects [5]: did not observe any major side effects
8 | #2: acetylated N-terminal variable domain with addition of Met6 (Ac-SDKPDM-OH; UniProt P62328 2-7, looked up, fragment) |  | 10.65+/−1.15 beats/75 sec | inhibit myocyte beating in vitro | 
